PMC7486940, “Pre-symptomatic Caspase-1 inhibitor delays cognitive decline in a mouse model of Alzheimer disease and aging” (Nature Communications, 2020)

Tests used:
alpha-synuclein = test system: alpha-synuclein; parameters: method as in PMID 27482083; details: in vitro; cited from earlier work
CD68 = CD68 immunostaining of phagocytic microglia and macrophages; format: in vivo, mouse; details: VX-765-treated J20; 20-week WO; no staining in any vehicle-treated J20
Description: (§1) VX-765 (Adooq Bioscience, Irvine, CA, USA) was dissolved 5 mg • ml^−1 in 20% cremophor in dH2O[60] (Sigma-Aldrich, ON, Canada) and administered IPWT and J20 mice received three injections per week of either 50 mg • kg^−1 VX-765 or 20% cremophor vehicle for 4 weeks between 2 and 3 months of age. Mice were longitudinally followed starting 4 weeks after the last injection [4-week washout (WO)], then every other month at 12- and 20-week WO (6 and 8 months of age, respectively). Intermediate 8- and 16-week WO periods were also looked at with a smaller number of mice. After each WO period, animals were randomly chosen, independent of behavioural performance, for sacrifice and assigned to either histological or biochemical analysis (Fig. 2a).
Mice for immunohistochemistry were isoflurane anesthetized and perfused with ice-cold 4% paraformaldehyde in 0.1 M PBS (Sigma-Aldrich). Brains were post-fixed overnight in 10% neutral-buffered formalin (ThermoFisher Scientific, ON, Canada) and transferred to 70% ethanol for paraffin embedding and sectioning at 4 μm. Tissue slides underwent heat-induced antigen retrieval with citrate or EDTA buffer. Immunostaining was performed using the Dako Autostainer Plus slide processor and EnVision Flex system (Dako, ON, Canada). […]

Aβ = Aβ immunostaining density and ELISA (RIPA- and FA-soluble); format: in vivo, mouse
Description: as §1
(§2) Mice for immunohistochemistry were isoflurane anesthetized and perfused with ice-cold 4% paraformaldehyde in 0.1 M PBS (Sigma-Aldrich). Brains were post-fixed overnight in 10% neutral-buffered formalin (ThermoFisher Scientific, ON, Canada) and transferred to 70% ethanol for paraffin embedding and sectioning at 4 μm. Tissue slides underwent heat-induced antigen retrieval with citrate or EDTA buffer. Immunostaining was performed using the Dako Autostainer Plus slide processor and EnVision Flex system (Dako, ON, Canada). Sections were peroxidase treated, blocked in Serum-Free Protein Block, and immunostained with the following antibodies: 1:2000 rabbit anti-Iba1 (Wako, VA, USA), 1:500 rat anti-CD68 (clone FA-11, Bio-Rad, Hercules, CA, USA), 1:8000 rabbit anti-GFAP (Dako) and 1:2000 rabbit anti-Aβ1-40 (F25276, laboratory developed). CD68 antibody required an additional rabbit anti-rat IgG/HRP secondary reagent (Dako) incubation. […] Sections were digitally scanned with MIRAX SCAN (Zeiss, ON, Canada) and used for subsequent analyses.
(§3) Iba1-positive microglia were quantified using a modified version of an area-specific counting frame. The number of Iba1-positive cells per mm^3 in the anterior CA1 region and cortex was estimated across four sections, spaced 60 μm apart. Microglial activation level was determined based on morphological measurements[19],[41]. Aβ1-40 and GFAP immunostaining density was measured across four sections using ImageJ software (NIH, Bethesda, MD, USA). Quantification was blinded to treatment and genotype.
(§4) ELISA samples were prepared in RIPA described above. RIPA-insoluble pellets were further extracted in 70% formic acid (FA) in dH2O. FA was evaporated in a speed vacuum, and the resulting pellet was solubilized in 200 mM Tris-HCl, pH 7.5. IL-1β and Aβ levels (which include Aβ38, Aβ40 and Aβ42) were measured using Meso Scale Discovery ELISA kits (Rockville, MD, USA). Standards and samples were prepared according to the manufacturer’s protocols and run in duplicate.

IL-1β = IL-1β and IL-18 levels (PCR, western blot, ELISA); format: in vivo, mouse
Description: as §1
(§5) Twenty to sixty micrograms of protein or 16 μl of precipitated protein from culture medium were separated on SDS-PAGE or 4–12% NuPAGE Bis-Tris gels (Invitrogen, Carlsbad, CA, USA) with MES buffer (Invitrogen) and transferred onto PVDF membranes (Bio-Rad) according to the manufacturer’s instructions. Membranes were probed with the following antibodies: 1:1000 mouse anti-Aβ1-16 (6E10) (BioLegend, CA, USA), 1:2000 rabbit anti-APP C-terminus (A8717) (Sigma-Aldrich), 1:1000 rabbit anti-neprilysin (Nep, Abcam, ON, Canada), 1:500 rabbit anti-insulin degrading enzyme (IDE, Abcam), 1:3000 rabbit anti-GFAP (Dako), 1:1000 rabbit anti-IL-1β (Abcam), 1:1000 rat anti-Caspase-1 (clone 4B4.2.1, kindly provided by Genentech, San Francisco, CA, USA) and 1:1000 mouse anti-β-actin (Sigma-Aldrich). […] Signals were visualized with the ImageQuant LAS 4000 imaging system and densitometric analyses were performed with Image Gauge analysis software 3.0 (Fujifilm USA, NY, USA). Protein extracts from three independent mice in each group were run together on each blot. Protein levels were normalized to β-actin and expressed as a percentage relative to the vehicle-treated WT group, except for APP which was compared to the vehicle-treated J20 group. Representative full blots are shown in the Source data file.
as §4
Real-time PCR experiments were performed with SYBR Green Taq Mastermix (Quanta BioSciences, MD, USA) in a real-time cycler ABI 7500 Fast Block (Applied Biosystems, CA, USA). Primer sequences are described in the supplementary material. […]

[1] = parameters: method as in PMID 30254377; details: cited from earlier work
CD4 T-cell = test system: CD4 T-cell; parameters: method as in PMID 24356306; details: HIV; cited from earlier work
Casp11 = test system: Casp11; parameters: method as in Flores et al., Nature Communications 2018; details: ref Flores et al., Nature Communications 2018; cited from earlier work
[2] = test system: experimental allergic encephalitis multiple sclerosis mouse model; parameters: method as in PMID 29895691; details: cited from earlier work
Iba1-positive microglia = Iba1-positive microglia quantification and morphology (immunohistochemistry); format: in vivo, mouse
Description: as §1, §2, §3

[3] = test system: Nlrp1, Nlrp3, Asc, Casp1, Casp6, Casp11, Casp3; test: inflammasome and caspase expression (PCR, Casp1 western blot); format: in vivo, mouse
Description: as §1
as §5, with “file. […]” for “file.”

SMILES: CCO[C@@H]1OC(=O)C[C@@H]1NC(=O)[C@@H]1CCCN1C(=O)[C@@H](NC(=O)c1ccc(N)c(Cl)c1)C(C)(C)C [VX-765, (S)-1-((S)-2-{[1-(4-amino-3-chloro-phenyl)-methanoyl]-amino}-3,3-dimethyl-butanoyl)-pyrrolidine-2-carboxylic acid ((2R,3S)-2-ethoxy-5-oxo-tetrahydro-furan-3-yl)-amide]
- alpha-synuclein toxicity (alpha-synuclein): protect against alpha-synuclein toxicity
- mice with CD68 positive staining (CD68): four out of the five
- FA-soluble Aβ42 levels, Aβ42/total Aβ ratio, cortical Aβ subtypes (Aβ; J20, 20-week WO): did not affect hippocampal Aβ42 levels and Aβ42/total Aβ ratio, or any Aβ subtype in the cortex
- Aβ staining density (Aβ; J20 hippocampus and cortex, vs vehicle): significantly decreased Aβ staining density only in the cortex at 12-week WO
- RIPA-soluble Aβ38, Aβ40, Aβ42 or total Aβ levels (Aβ; J20 hippocampus or cortex, all WO periods, vehicle vs VX-765): no significant differences
- formic acid (FA)-soluble total Aβ levels (Aβ; J20 hippocampus or cortex, any WO period): did not differ between vehicle and VX-765 treatment
- FA-soluble hippocampal Aβ38 and Aβ40 levels (Aβ; J20 hippocampus, 20-week WO): increased FA-soluble hippocampal Aβ38 and Aβ40 levels at 20-week WO
- RIPA-soluble Aβ42/total Aβ ratio (Aβ; J20 hippocampus, 20-week WO): significantly higher in vehicle- compared to VX-765-treated hippocampus in J20 mice at 20-week WO
- active IL-1β levels (western blot) (IL-1β; J20 cortex, 20-week WO): normalized with VX-765 treatment at 20-week WO
- Il-1β mRNA (IL-1β; J20 hippocampus, 16-week WO): normalized with VX-765 treatment at 16-week WO
- cortical IL-1β levels (ELISA) (IL-1β; cortex, any WO): did not differ between groups at any WO
- total protein IL-1β levels (ELISA) (IL-1β; hippocampus, 4-, 12-, or 20-week WO): did not differ between treatment groups
- concentration in the J20 brain ([1]; 50 mg/kg dose of VX-765, carotid infusion, J20 mice): 2000 to 5000 nM
- blood–brain barrier permeability [1]: blood–brain barrier permeable
- inflammation, CD4 T-cell death and pyroptosis (CD4 T-cell): reduce inflammation by suppressing CD4 T-cell death and pyroptosis in HIV
- IC50 for Casp11 compared to Casp1 (Casp11): over 100 fold
- inflammasome-related gene expression, axonal injury, behaviour [2]: reduce inflammasome-related gene expression, axonal injury, improve behaviour
- type III, amoeboid-appearing, microglia (Iba1-positive microglia; J20, 20-week WO): significantly higher in vehicle- and VX-765-treated J20 mice at 20-week WO
- duration of reduced microglial activation (Iba1-positive microglia; J20 cortex): ≤ 5 months
- duration of reduced microglial activation (Iba1-positive microglia; J20 hippocampus): up to 4 months
- microglial morphological profile (type I resting / type II activated) (Iba1-positive microglia; J20 hippocampus and cortex): reverted the profile in J20 mice back to a near WT profile at 4-week WO, but it slowly shifted from a resting to an activated state morphologically similar to vehicle-treated J20 mice from 12-week WO onwards
- Iba1-positive microglia numbers (Iba1-positive microglia; J20 hippocampus and cortex, all WO periods): prevented this increase, normalizing Iba1-positive numbers to near WT levels, although numbers did not reach significance in the hippocampus at 8- and 20-week WO
- type IV microglia (Iba1-positive microglia; J20 hippocampus, 20-week WO): elevated in the hippocampus of VX-765-treated J20 mice at 20-week WO
- full-length Casp1 levels (western blot) ([3]; J20 cortex, 20-week WO): reduced full-length Casp1 levels slightly compared to vehicle-treated J20 mice, but this did not reach statistical significance
- Casp1, Casp6, Casp11 and Casp3 hippocampal mRNA levels ([3]; hippocampus): no differences were observed
- Nlrp1, Nlrp3 and Asc hippocampal mRNA levels ([3]; hippocampus, vehicle WT, vehicle J20, VX-765 J20): did not differ between the three treatment groups at any of the WO periods
